{
  "source": "patent US20100160454A1",
  "about": "“ANTIMICROBIAL AGENTS, COMPOSITIONS AND PRODUCTS CONTAINING THE SAME, AND METHODS OF USING THE COMPOSITIONS AND PRODUCTS” (Eastman Chemical Company, priority 2008, published 2010)",
  "assay_in_all_cases": "Microbiological challenge testing in BPW broth, graded subculture counts",
  "type_in_all_cases": "cell-based",
  "key": {"[1]": {"test_system": "Proteus vulgaris Wild type", "experimental": "(§1) The microorganisms in the table below were used in challenge tests. They were either ATCC (American Type Culture Collection) or “wild type” as indicated. Wild type organisms were problematic organisms previously isolated from chemical products.\n(§2) All of the microorganisms were grown in Tryptose Soy Broth (TSB), DIFCO™ available from Becton, Dickinson and Company, containing 1% dextrose. Candida albicans and Aspergillus niger, were incubated at 22° C.+/−2° C. for at least 96 hours. All bacteria were incubated at 35° C.+/−2° C. in a humidified incubator for at least 96 hours.\n(§3) The following procedure was followed to determine the amount of each challenge material (inoculum broth) needed to produce a 10^8 CFU/mL challenge, which is equivalent to a final test-sample microbial concentration of 10^5 to 10^6 CFU/mL (CFU=colony forming units).\n(§4) Using a sterile pipette, 1 mL of the growth from each TSB culture was transferred into tubes of 9 mL buffered water (pH 7.2 phosphate buffer) and mixed thoroughly. This was repeated to make serial 1:10 dilutions. Then, 0.1 mL of each sample and dilution was inoculated onto agar plates to produce the equivalent of a further 1:10 dilution. (C. albicans and A. niger were inoculated onto SABD and bacteria were inoculated onto Plate Count Agar (PCA), DIFCO™ available from Becton, Dickinson and Company.) (The normal volume plated for most samples was 0.1 mL. Some samples that could be very low in micro-organisms (high dilutions) were plated using 0.5 mL of inoculum, in order to produce reproducible counts.) The samples were distributed on the plates using the spread-plate technique. The spread-plate technique is carried out by spreading the sample over the entire plate surface using a sterile spreading rod while rotating the plate with a rotary auto-plater. After the inoculum was absorbed completely by the agar, each plate was inverted and incubated (fungi at 22° C.+/−2° C. and bacteria at 35° C.+/−2° C.).\n(§5) After incubation for at least 48 hours, colonies that had developed on the agar plates were counted (CFU) and recorded with the corresponding dilution. If counting had to be delayed temporarily, plates were refrigerated, preferably no more than 24 hours, until they could be counted. The number of CFU/mL was determined by multiplying the plate count by the dilution factor of the plate counted.\n(§6) Turbidity in Nepholemetric Turbidity Units (NTU) was measured for each serial dilution using the HF-Micro 100 Model Turbidimeter. For each microorganism, the plate counts were compared to the turbidity readings.\n(§7) Control substrates (“broth alone”) were prepared for each microorganism separately in triplicate by adding 13.5 mL of Buffered Peptone Water broth (BPW) containing 1% dextrose to each 20-mL glass tube, then adding 1.5 mL challenge material to produce a final concentration at time zero of 10^5 to 10^6 CFU/mL and a total volume of 15 mL.\n(§8) Test sample substrates were prepared containing each test material listed below at the concentrations shown for challenge testing with each microorganism separately. Sample substrates were prepared in triplicate, except the substrates containing butoxyethanol which were prepared in duplicate. Substrates were prepared by adding BPW containing 1% dextrose to each 20-mL glass tube, then adding the test material in the amount appropriate to achieve the desired weight/volume percent and to achieve a total volume of BPW plus dextrose plus test material of 13.5 mL. Then 1.5 mL challenge material was added to produce a final concentration at time zero of 10^5 to 10^6 CFU/mL and a total test sample substrate volume of 15 mL."}, "[2]": {"test_system": "Burkholderia cepacia Wild type", "conditions": "B. cepacia", "experimental": "as §1, §2, §3, §4, §5, §6, §7, §8"}, "[3]": {"test_system": "Bacillus subtilis Wild type", "experimental": "as §1, §2, §3, §4, §5, §6, §7, §8"}, "[4]": {"test_system": "Staphylococcus epidermidis ATCC 12228", "experimental": "as §1, §2, §3, §4, §5, §6, §7, §8"}},
  "data": [
    {"smiles": "OCC1CCC(CO)CC1", "note": "(stereo not drawn) [1,4-CHDM, 1,4-cyclohexanedimethanol]", "values": [
      {"measurement": "P. vulgaris growth grade, 3 day", "setting": "[1]; 0.5% weight/volume", "result": "4 (1000 to 10,000 colonies countable (thus 10,000 CFU/mL to 100,000 CFU/mL))"},
      {"measurement": "P. vulgaris growth grade, 13 day", "setting": "[1]; 0.5% weight/volume", "result": "4 (1000 to 10,000 colonies countable (thus 10,000 CFU/mL to 100,000 CFU/mL))"},
      {"measurement": "P. vulgaris growth grade, 30 day", "setting": "[1]; 0.5% weight/volume", "result": "4 (1000 to 10,000 colonies countable (thus 10,000 CFU/mL to 100,000 CFU/mL))"},
      {"measurement": "P. vulgaris growth grade, 3 day", "setting": "[1]; 1.25% weight/volume", "result": "3 (100 to 1000 colonies (thus 1000 to 10,000 CFU/mL))"},
      {"measurement": "P. vulgaris growth grade, 13 day", "setting": "[1]; 1.25% weight/volume", "result": "2 (52 to 100 colonies counted (thus 520 to 1000 CFU/mL))"},
      {"measurement": "P. vulgaris growth grade, 30 day", "setting": "[1]; 1.25% weight/volume", "result": 0},
      {"measurement": "P. vulgaris growth grade, 3 day", "setting": "[1]; 2.5% weight/volume", "result": "1 (0 to 51 colonies counted (thus 10 to 510 CFU/mL based on 0.1-mL sample))"},
      {"measurement": "P. vulgaris growth grade, 13 day", "setting": "[1]; 2.5% weight/volume", "result": 0},
      {"measurement": "P. vulgaris growth grade, 30 day", "setting": "[1]; 2.5% weight/volume", "result": 0},
      {"measurement": "P. vulgaris growth grade, 3 day", "setting": "[1]; 5.0% weight/volume", "result": 0},
      {"measurement": "P. vulgaris growth grade, 13 day", "setting": "[1]; 5.0% weight/volume", "result": 0},
      {"measurement": "P. vulgaris growth grade, 30 day", "setting": "[1]; 5.0% weight/volume", "result": 0},
      {"measurement": "Grade", "setting": "[2]; 0.5% (wt/vol), 3 day", "result": "4 (1000 to 10,000 colonies countable (thus 10,000 CFU/mL to 100,000 CFU/mL))"},
      {"measurement": "Grade", "setting": "[2]; 0.5% (wt/vol), 14 day", "result": "4 (1000 to 10,000 colonies countable (thus 10,000 CFU/mL to 100,000 CFU/mL))"},
      {"measurement": "Grade", "setting": "[2]; 0.5% (wt/vol), 30 day", "result": "4 (1000 to 10,000 colonies countable (thus 10,000 CFU/mL to 100,000 CFU/mL))"},
      {"measurement": "Grade", "setting": "[2]; 1.25% (wt/vol), 3 day", "result": "4 (1000 to 10,000 colonies countable (thus 10,000 CFU/mL to 100,000 CFU/mL))"},
      {"measurement": "Grade", "setting": "[2]; 1.25% (wt/vol), 14 day", "result": "2 (52 to 100 colonies counted (thus 520 to 1000 CFU/mL))"},
      {"measurement": "Grade", "setting": "[2]; 1.25% (wt/vol), 30 day", "result": "4 (1000 to 10,000 colonies countable (thus 10,000 CFU/mL to 100,000 CFU/mL))"},
      {"measurement": "Grade", "setting": "[2]; 2.5% (wt/vol), 3 day", "result": 0},
      {"measurement": "Grade", "setting": "[2]; 2.5% (wt/vol), 14 day", "result": 0},
      {"measurement": "Grade", "setting": "[2]; 2.5% (wt/vol), 30 day", "result": 0},
      {"measurement": "Grade", "setting": "[2]; 5.0% (wt/vol), 3 day", "result": 0},
      {"measurement": "Grade", "setting": "[2]; 5.0% (wt/vol), 14 day", "result": 0},
      {"measurement": "Grade", "setting": "[2]; 5.0% (wt/vol), 30 day", "result": 0},
      {"measurement": "B. subtillis growth grade, 3 day", "setting": "[3]; 0.5% weight/volume", "result": "4 (1000 to 10,000 colonies countable (thus 10,000 CFU/mL to 100,000 CFU/mL))"},
      {"measurement": "B. subtillis growth grade, 14 day", "setting": "[3]; 0.5% weight/volume", "result": "4 (1000 to 10,000 colonies countable (thus 10,000 CFU/mL to 100,000 CFU/mL))"},
      {"measurement": "B. subtillis growth grade, 30 day", "setting": "[3]; 0.5% weight/volume", "result": "4 (1000 to 10,000 colonies countable (thus 10,000 CFU/mL to 100,000 CFU/mL))"},
      {"measurement": "B. subtillis growth grade, 3 day", "setting": "[3]; 1.25% weight/volume", "result": "4 (1000 to 10,000 colonies countable (thus 10,000 CFU/mL to 100,000 CFU/mL))"},
      {"measurement": "B. subtillis growth grade, 14 day", "setting": "[3]; 1.25% weight/volume", "result": "4 (1000 to 10,000 colonies countable (thus 10,000 CFU/mL to 100,000 CFU/mL))"},
      {"measurement": "B. subtillis growth grade, 30 day", "setting": "[3]; 1.25% weight/volume", "result": "4 (1000 to 10,000 colonies countable (thus 10,000 CFU/mL to 100,000 CFU/mL))"},
      {"measurement": "B. subtillis growth grade, 3 day", "setting": "[3]; 2.5% weight/volume", "result": "3 (100 to 1000 colonies (thus 1000 to 10,000 CFU/mL))"},
      {"measurement": "B. subtillis growth grade, 14 day", "setting": "[3]; 2.5% weight/volume", "result": "2 (52 to 100 colonies counted (thus 520 to 1000 CFU/mL))"},
      {"measurement": "B. subtillis growth grade, 30 day", "setting": "[3]; 2.5% weight/volume", "result": "1 (0 to 51 colonies counted (thus 10 to 510 CFU/mL based on 0.1-mL sample))"},
      {"measurement": "B. subtillis growth grade, 3 day", "setting": "[3]; 5.0% weight/volume", "result": "1 (0 to 51 colonies counted (thus 10 to 510 CFU/mL based on 0.1-mL sample))"},
      {"measurement": "B. subtillis growth grade, 14 day", "setting": "[3]; 5.0% weight/volume", "result": 0},
      {"measurement": "B. subtillis growth grade, 30 day", "setting": "[3]; 5.0% weight/volume", "result": 0},
      {"measurement": "S. epidermidis growth grade, 3 day", "setting": "[4]; 0.5% weight/volume", "result": "4 (1000 to 10,000 colonies countable (thus 10,000 CFU/mL to 100,000 CFU/mL))"},
      {"measurement": "S. epidermidis growth grade, 13 day", "setting": "[4]; 0.5% weight/volume", "result": "4 (1000 to 10,000 colonies countable (thus 10,000 CFU/mL to 100,000 CFU/mL))"},
      {"measurement": "S. epidermidis growth grade, 30 day", "setting": "[4]; 0.5% weight/volume", "result": "4 (1000 to 10,000 colonies countable (thus 10,000 CFU/mL to 100,000 CFU/mL))"},
      {"measurement": "S. epidermidis growth grade, 3 day", "setting": "[4]; 1.25% weight/volume", "result": "2 (52 to 100 colonies counted (thus 520 to 1000 CFU/mL))"},
      {"measurement": "S. epidermidis growth grade, 13 day", "setting": "[4]; 1.25% weight/volume", "result": 0.7},
      {"measurement": "S. epidermidis growth grade, 30 day", "setting": "[4]; 1.25% weight/volume", "result": "2 (52 to 100 colonies counted (thus 520 to 1000 CFU/mL))"}
    ]}
  ]
}
